# Measurements published in PMC10180349 (Molecules, 2023).
# Tests used:
# [1] = system: MDA-MB-231 xenograft tumor tissue; assay: TUNEL assay of tumor slides; assay type: in vivo, Female BALB/c nude mice; details: PTX-TTHA 6.87-13.73 mg/kg q3d; PTX 10 mg/kg q7d
# Procedure: The tumor slides of MDA-MB-231 xenograft mice were deparaffinized and rehydrated as per the method described above. Then, the TUNEL assay was performed according to the manufacturer’s instructions. Briefly, slides were permeabilized with proteinase K for 20 min and blocked with 3% H2O2 for 10 min. After washing, slides were incubated with Biotin labeling solution for 1 h, and the nucleus was counterstained with DAPI for 1 min. The localized red fluorescence of the apoptotic cells was visualized by fluorescence microscopy. Two experienced pathologists randomly selected 10 (×200) fields for every slide and then analyzed them. The percentage of TUNEL-positive cells among total cells was semi-quantitatively measured with the Image-J software.
# caspase-3 = assay: Caspase-3 activity assay in cell lysates; assay type: cell-based, Human; details: MDA-MB-231, 0.1 and 1 nM, 48 h
# Procedure: The activity of caspase-3 was performed according to the manufacturer’s protocol of the Caspase-3 Activity Assay Kit (Beyotime, Shanghai, China). […] Then, the absorbance was measured at 405 nm using a Microplate Reader (Thermo 3001, Vantaa, Finland), and the protein concentration was obtained via Bradford assay. Data were normalized for the protein content of each supernatant and expressed as the relative value compared to the control. The PTX-treated group was used as a positive control.
# Ki-67 = Ki-67 immunohistochemical staining of tumor slides; assay type: in vivo, Female BALB/c nude mice; details: 6.87, 10.30, 13.73 mg/kg q3d, p < 0.01
# Procedure: The tumor slides of MDA-MB-231 xenograft mice were deparaffinized and rehydrated as per the method described above. Next, slides were boiled in citrate antigen retrieval solution for 2 min and then blocked with 3% H2O2 for 10 min. After washing, slides were incubated with primary Ki-67 antibody (1:400, Abcam AB15580) at 4 °C overnight, followed by incubation with the goat anti-rabbit HRP-conjugated secondary antibody (1:500) for 1 h at RT. Finally, slides were stained with DAB chromogenic reagent and hematoxylin. Images were visualized using a Zeiss microscope (Carl Zeiss Meditec AG, Jena, Germany). Three separate visual fields were randomly selected from each slice. The percentage of the positive area was semi-quantitatively analyzed with the Image-J software.
# 4T1 [2] = assay: cells; details: Mus musculus, 4T1, 48 h
# physchem = details: water, thermodynamic from solid
# MCF-7 [3] = assay: cells; details: Homo sapiens, MCF7, 48 h
# MDA-MB-231 cells [4] = assay: Annexin V-FITC/PI flow cytometry apoptosis assay; assay type: cell-based, Human; details: 48 h
# Procedure: Cell apoptosis analysis was performed according to the manufacturer’s protocol of the Annexin V-FITC Detection kit (Beyotime, Shanghai, China). […] Finally, the samples were tested by flow cytometer (BD FACSCelesta) and analyzed using FlowJo Software (Tree Star Inc., Ashland, OR, USA). The PTX-treated group was used as a positive control.
# MCF-7 [5] = details: SI = IC50 MCF 10A/IC50 MCF-7, 48 h
# Bax = assay: Western blot of xenograft tumor tissues; assay type: in vivo, Female BALB/c nude mice; details: 6.87, 10.30, 13.73 mg/kg q3d, dose-dependent, p < 0.01
# Procedure: (§1) The removed tumor tissues were cut into pieces and homogenized in RIPA lysis buffer (Cat#P0013B; Beyotime, Shanghai, China) containing PMSF protease inhibitor (Cat#ST506; Beyotime, Shanghai, China) (RIPA: PMSF = 100:1) using a glass homogenizer on ice for 30 min. The lysates were harvested by centrifugation (12,000 rpm) at 4 °C for 5 min. The protein concentrations were measured by BCA Protein Assay Kit (Beyotime, Shanghai, China) and boiled at 95 °C for 5 min. Then, equal amounts of proteins (30 μg) from five groups were separated by 10% SDS-PAGE and transferred to PVDF membranes (EMD Millipore, Billerica, MA, USA). The membranes were blocked with 5% non-fat milk for 2 h and washed with TBST buffer. Next, membranes were incubated with primary antibodies (β-actin, cleaved caspase-3, Bax, Bcl-2) at a dilution of 1:1000 at 4 °C overnight, followed by the goat anti-rabbit HRP-conjugated secondary antibody (1:5000) for 2 h at room temperature. β-actin was used as an internal control. Protein bands were visualized by a chemiluminescence detection system (Bio-Rad, Hercules, CA, USA) and quantitated using the Image-J software.
# Bcl-2 = assay: Western blot of xenograft tumor tissues; assay type: in vivo, Female BALB/c nude mice; details: 6.87, 10.30, 13.73 mg/kg q3d, dose-dependent, p < 0.01
# Procedure: as §1
# cleaved caspase-3 = assay: Western blot of xenograft tumor tissues; assay type: in vivo, Female BALB/c nude mice; details: 6.87, 10.30, 13.73 mg/kg q3d, dose-dependent, p < 0.01
# Procedure: as §1
# MDA-MB-231 cells [6] = assay: Cell cycle analysis (PI, flow cytometry); assay type: cell-based, Human; details: 48 h
# Procedure: Cell cycle assay was performed using the DNA Content Quantitation Assay (Solarbio, Beijing, China). […] Then, the fixed cells were incubated with RNase A solution at 37 °C for 30 min and stained with PI in the dark for 30 min at 4 °C. The red fluorescence was detected using a flow cytometer (BD FACSCalibur) at 488 nm and analyzed by FlowJo Software (Tree Star Inc, Ashland, OR, USA). The PTX-treated group was set as a positive control.
# 4T1 [7] = details: SI = IC50 MCF 10A/IC50 4T1, 48 h
# [8] = system: microtubules in MDA-MB-231 cells; assay: Immunofluorescence staining of microtubules (α-tubulin antibody); assay type: cell-based, Human; details: MDA-MB-231, 0.1 nM, 48 h
# Procedure: Cells were fixed with 4% paraformaldehyde for 20 min, permeabilized with 0.1%Triton X-100 for 5 min, and blocked with 1% BSA for 1.5 h. Next, cells were incubated with α-tubulin antibody (1:400 Abcam, AB52866) at 4 °C overnight, followed by the Alexa Fluor 488 conjugated goat anti-rabbit IgG secondary antibody (1:300, ZF-0511, Zhongshan Goldenbridge Biotechnology, Beijing, China). Finally, nuclei were stained with DAPI for 4 min. Stained cells were observed using a laser confocal microscope (LSM700; Zeiss, Gottingen, Germany). The PTX-treated group was used as a positive control.
# MDA-MB-231 = details: SI = IC50 MCF 10A/IC50 MDA-MB-231, 48 h
smiles,measurement,setting,value
"CC(=O)O[C@H]1C(=O)[C@@]2(C)[C@H]([C@H](OC(=O)c3ccccc3)[C@]3(O)C[C@H](OC(=O)[C@H](OC(=O)CN(CCN(CCN(CCN(CC(=O)O)CC(=O)O)CC(=O)O)CC(=O)O)CC(=O)O)[C@@H](NC(=O)c4ccccc4)c4ccccc4)C(C)=C1C3(C)C)[C@]1(OC(C)=O)CO[C@@H]1C[C@@H]2O [PTX-TTHA, 3,6,9,12-Tetraazatetradecanedioic acid, 3,6,9,12-tetrakis(carboxymethyl)-1-[2-(benzoylamino)-1-[[[6,12b-bis(acetyloxy)-12-(benzoyloxy)-2a,3,4,4a,5,6,9,10,11,12,12a,12b-dodecahydro-4,11-dihydroxy-4a,8,13,13-tetramethyl-5-oxo-7,11-methano-1H-cyclodeca [3, 4]benz [1,2-b]oxet-9-yl]oxy]carbonyl]-2-phenylethyl] ester]",TUNEL signal of apoptotic cells in tumor tissue,[1],strong red fluorescent signal
same,caspase-3 activity compared with the control group,caspase-3,significantly activated
same,Ki-67 expression in tumor tissues compared with the control group,Ki-67,significantly reduced
same,IC50,4T1 [2],17.2 ± 1.96 nM
same,solubility,physchem,> 5000 µg/mL
same,IC50,MCF-7 [3],15.8 ± 1.04 nM
same,cell apoptosis rate,"MDA-MB-231 cells [4]; 0.1 nM, control 2.17% ± 0.76%",30.4% ± 3.61
same,cell apoptosis rate,MDA-MB-231 cells [4]; 1 nM,50.5% ± 2.19
same,selectivity index (SI),MCF-7 [5],23.19
same,Bax expression level in tumor compared with the control group,Bax,significantly upregulated
same,Bcl-2 expression level in tumor compared with the control group,Bcl-2,significantly downregulated
same,cleaved caspase-3 expression level in tumor compared with the control group,cleaved caspase-3,significantly upregulated
same,cells in G2/M phase,"MDA-MB-231 cells [6]; 0.1 nM, control 8.74 ± 0.60%",23.06 ± 0.92%
same,cells in G2/M phase,MDA-MB-231 cells [6]; 1 nM,51.40% ± 0.45
same,selectivity index (SI),4T1 [7],21.36
same,microtubule fluorescence intensity compared with the control group,[8],enhanced fluorescence intensity of microtubules
same,selectivity index (SI),MDA-MB-231,28.97
